Experimental data published in ChEMBL document CHEMBL3745672, “Novel compounds reducing IRS-1 serine phosphorylation for treatment of diabetes” (Bioorg Med Chem Lett, 2016).

Legend:
[1] = biological target: T1, Serine/threonine-protein kinase Chk1 (Homo sapiens) (UniProt O14757); experiment: Inhibition of CHK1 (unknown origin) at 1 uM
T1 sequence (whole entry): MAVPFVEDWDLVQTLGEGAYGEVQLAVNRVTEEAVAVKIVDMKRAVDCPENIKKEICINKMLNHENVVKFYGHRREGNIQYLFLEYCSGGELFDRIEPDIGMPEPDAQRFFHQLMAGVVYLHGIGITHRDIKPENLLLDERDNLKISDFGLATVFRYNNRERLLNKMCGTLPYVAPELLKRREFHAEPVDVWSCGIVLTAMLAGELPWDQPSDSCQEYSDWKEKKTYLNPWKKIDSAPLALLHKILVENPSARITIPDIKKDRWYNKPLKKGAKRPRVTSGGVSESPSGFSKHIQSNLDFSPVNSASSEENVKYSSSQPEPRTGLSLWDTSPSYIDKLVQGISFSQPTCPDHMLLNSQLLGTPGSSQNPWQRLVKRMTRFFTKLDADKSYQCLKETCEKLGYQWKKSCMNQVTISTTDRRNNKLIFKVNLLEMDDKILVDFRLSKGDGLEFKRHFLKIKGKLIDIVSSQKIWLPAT

[2] = biological target: Tyrosine-protein kinase CSK (Homo sapiens) (UniProt P41240); experiment: Inhibition of CSK (unknown origin) at 1 uM
Tyrosine-protein kinase CSK (Homo sapiens), sequence (P41240 2-450 limits assumed): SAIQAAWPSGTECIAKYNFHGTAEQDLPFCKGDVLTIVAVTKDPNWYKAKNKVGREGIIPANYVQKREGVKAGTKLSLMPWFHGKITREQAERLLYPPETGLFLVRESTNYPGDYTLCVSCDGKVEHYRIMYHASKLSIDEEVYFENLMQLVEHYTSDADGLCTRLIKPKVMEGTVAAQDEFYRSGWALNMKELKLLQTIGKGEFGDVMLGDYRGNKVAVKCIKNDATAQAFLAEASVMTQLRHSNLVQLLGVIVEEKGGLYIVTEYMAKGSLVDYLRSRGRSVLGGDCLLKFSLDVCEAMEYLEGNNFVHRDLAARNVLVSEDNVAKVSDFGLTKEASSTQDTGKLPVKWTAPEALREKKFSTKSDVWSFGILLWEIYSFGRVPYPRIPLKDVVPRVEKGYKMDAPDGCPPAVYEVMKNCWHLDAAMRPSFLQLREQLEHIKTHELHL

[3] = biological target: Epithelial discoidin domain-containing receptor 1 (Homo sapiens) (UniProt Q08345); experiment: Inhibition of DDR1 (unknown origin) at 1 uM
Epithelial discoidin domain-containing receptor 1 (Homo sapiens), sequence (Q08345 whole entry, the tested form may be a part): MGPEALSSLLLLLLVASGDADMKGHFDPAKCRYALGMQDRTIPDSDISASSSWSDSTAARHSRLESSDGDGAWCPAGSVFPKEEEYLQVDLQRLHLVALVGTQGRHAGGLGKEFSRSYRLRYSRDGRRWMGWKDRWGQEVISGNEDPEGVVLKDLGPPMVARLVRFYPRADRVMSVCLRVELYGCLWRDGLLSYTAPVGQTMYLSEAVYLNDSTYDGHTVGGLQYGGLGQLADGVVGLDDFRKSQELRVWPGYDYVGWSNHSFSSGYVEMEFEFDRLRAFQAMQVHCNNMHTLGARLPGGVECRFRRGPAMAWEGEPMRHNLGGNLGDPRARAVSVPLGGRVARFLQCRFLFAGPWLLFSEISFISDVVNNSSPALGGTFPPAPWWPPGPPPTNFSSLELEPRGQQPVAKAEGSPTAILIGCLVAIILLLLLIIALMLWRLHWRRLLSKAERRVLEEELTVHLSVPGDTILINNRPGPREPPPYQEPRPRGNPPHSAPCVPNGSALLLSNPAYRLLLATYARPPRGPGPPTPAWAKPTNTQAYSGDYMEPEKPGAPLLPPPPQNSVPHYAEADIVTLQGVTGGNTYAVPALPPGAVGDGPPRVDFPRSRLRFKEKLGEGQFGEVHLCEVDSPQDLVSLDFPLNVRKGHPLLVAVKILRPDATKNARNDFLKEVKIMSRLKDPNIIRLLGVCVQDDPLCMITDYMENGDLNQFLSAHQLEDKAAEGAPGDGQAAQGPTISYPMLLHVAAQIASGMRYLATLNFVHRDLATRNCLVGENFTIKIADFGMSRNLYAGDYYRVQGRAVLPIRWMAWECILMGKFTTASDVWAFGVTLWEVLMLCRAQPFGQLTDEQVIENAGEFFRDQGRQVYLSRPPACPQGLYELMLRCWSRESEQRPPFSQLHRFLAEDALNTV

[4] = biological target: Tyrosine-protein kinase ABL1 (Homo sapiens) (UniProt P00519); experiment: Inhibition of ABL (unknown origin) at 1 uM
[5] = biological target: T2, Interleukin-1 receptor-associated kinase 4 (Homo sapiens) (UniProt Q9NWZ3); experiment: Inhibition of IRAK4 (unknown origin) at 1 uM
T2 sequence (whole entry): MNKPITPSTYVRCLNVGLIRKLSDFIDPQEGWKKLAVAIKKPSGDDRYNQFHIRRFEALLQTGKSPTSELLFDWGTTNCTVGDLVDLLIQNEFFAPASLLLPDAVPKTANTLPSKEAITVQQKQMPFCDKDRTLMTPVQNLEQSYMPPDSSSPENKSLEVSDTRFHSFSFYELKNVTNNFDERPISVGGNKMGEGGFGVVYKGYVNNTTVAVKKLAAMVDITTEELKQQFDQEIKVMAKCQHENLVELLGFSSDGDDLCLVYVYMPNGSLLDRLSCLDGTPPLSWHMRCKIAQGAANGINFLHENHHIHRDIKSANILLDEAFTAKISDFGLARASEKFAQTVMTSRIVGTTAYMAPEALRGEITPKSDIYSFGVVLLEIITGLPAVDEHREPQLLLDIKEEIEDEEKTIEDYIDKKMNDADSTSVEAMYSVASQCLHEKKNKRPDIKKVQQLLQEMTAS

[6] = biological target: T3, Aurora kinase A (Homo sapiens) (UniProt O14965); experiment: Inhibition of AurA (unknown origin) at 1 uM
T3 sequence (whole entry): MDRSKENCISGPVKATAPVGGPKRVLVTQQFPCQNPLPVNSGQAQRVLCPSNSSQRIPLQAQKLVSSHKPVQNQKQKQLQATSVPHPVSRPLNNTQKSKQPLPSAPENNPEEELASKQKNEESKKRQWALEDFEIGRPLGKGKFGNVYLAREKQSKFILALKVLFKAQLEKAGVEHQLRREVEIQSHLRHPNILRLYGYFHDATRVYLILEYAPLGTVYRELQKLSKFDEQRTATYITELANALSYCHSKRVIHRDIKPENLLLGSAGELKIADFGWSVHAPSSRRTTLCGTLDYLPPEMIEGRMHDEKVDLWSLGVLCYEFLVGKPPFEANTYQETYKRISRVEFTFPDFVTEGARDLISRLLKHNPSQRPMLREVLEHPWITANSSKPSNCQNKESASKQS

[7] = biological target: Proto-oncogene tyrosine-protein kinase receptor Ret (Homo sapiens) (UniProt P07949); experiment: Inhibition of RET (unknown origin) at 1 uM
Proto-oncogene tyrosine-protein kinase receptor Ret (Homo sapiens), sequence (P07949 whole entry): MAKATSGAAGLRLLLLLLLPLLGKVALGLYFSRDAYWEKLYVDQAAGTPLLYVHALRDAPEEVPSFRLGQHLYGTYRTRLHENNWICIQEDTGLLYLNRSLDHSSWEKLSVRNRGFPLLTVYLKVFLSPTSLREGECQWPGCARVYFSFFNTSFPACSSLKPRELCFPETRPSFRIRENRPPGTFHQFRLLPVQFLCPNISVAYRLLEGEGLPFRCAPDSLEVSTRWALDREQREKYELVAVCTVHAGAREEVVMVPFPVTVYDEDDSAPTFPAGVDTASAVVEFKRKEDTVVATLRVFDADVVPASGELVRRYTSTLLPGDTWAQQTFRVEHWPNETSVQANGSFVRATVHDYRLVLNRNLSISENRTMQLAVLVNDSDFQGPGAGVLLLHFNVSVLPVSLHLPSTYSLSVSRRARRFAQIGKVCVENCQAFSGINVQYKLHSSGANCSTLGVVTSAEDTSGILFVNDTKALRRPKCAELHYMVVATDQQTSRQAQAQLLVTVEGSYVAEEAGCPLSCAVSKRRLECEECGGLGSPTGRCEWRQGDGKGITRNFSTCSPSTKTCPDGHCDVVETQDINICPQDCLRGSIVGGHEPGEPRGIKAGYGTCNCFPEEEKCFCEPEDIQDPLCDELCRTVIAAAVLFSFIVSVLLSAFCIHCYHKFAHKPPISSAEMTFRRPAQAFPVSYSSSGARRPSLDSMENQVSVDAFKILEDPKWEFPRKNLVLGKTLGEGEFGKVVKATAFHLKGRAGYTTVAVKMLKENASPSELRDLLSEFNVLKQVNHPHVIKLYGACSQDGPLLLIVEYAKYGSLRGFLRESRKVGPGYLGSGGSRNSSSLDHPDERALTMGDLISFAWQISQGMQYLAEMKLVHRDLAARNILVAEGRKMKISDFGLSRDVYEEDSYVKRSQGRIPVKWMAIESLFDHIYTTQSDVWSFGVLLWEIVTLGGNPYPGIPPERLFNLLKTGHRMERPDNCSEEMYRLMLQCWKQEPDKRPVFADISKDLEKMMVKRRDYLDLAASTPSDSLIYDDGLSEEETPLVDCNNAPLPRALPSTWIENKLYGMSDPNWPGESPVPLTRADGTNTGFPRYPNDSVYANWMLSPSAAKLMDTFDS

[8] = biological target: Mitogen-activated protein kinase 8 (Homo sapiens, UniProt P45983); experiment: Inhibition of JNK1 (unknown origin) at 1 uM
[9] = biological target: Angiopoietin-1 receptor (Homo sapiens) (UniProt Q02763); experiment: Inhibition of TIE2 (unknown origin) at 1 uM
[10] = biological target: Mast/stem cell growth factor receptor Kit (Homo sapiens) (UniProt P10721); experiment: Inhibition of cKIT (unknown origin) at 1 uM
Mast/stem cell growth factor receptor Kit (Homo sapiens), sequence (P10721 whole entry): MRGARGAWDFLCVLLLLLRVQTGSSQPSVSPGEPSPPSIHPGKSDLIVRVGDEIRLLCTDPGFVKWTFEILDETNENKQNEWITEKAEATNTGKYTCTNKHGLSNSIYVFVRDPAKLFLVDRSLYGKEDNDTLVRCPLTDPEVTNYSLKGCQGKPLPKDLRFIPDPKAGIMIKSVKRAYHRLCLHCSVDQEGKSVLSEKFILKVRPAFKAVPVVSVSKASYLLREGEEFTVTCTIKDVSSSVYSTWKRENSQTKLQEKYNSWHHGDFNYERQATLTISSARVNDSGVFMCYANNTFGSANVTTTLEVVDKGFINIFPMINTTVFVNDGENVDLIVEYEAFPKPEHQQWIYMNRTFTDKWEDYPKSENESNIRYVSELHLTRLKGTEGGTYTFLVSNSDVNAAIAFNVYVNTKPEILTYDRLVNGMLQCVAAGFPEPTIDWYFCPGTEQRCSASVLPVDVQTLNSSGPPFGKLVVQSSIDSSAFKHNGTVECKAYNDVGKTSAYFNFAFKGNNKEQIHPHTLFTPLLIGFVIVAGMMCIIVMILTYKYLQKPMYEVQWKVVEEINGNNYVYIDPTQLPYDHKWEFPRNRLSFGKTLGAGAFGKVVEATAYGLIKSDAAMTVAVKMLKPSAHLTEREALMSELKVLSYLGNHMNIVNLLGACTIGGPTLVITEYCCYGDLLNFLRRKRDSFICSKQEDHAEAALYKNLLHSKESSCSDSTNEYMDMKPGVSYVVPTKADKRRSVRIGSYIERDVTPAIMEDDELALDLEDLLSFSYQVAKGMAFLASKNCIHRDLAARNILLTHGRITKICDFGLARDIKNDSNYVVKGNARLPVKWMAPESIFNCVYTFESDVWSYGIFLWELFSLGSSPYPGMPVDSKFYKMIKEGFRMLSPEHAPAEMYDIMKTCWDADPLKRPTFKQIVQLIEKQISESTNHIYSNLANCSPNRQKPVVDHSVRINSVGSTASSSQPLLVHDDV

[11] = biological target: Receptor tyrosine-protein kinase erbB-2 (Homo sapiens) (UniProt P04626); experiment: Inhibition of ERBB2 (unknown origin) at 1 uM
[12] = biological target: Proto-oncogene tyrosine-protein kinase Src (Homo sapiens) (UniProt P12931); experiment: Inhibition of SRC (unknown origin) at 1 uM
[13] = biological target: Receptor-type tyrosine-protein kinase FLT3 (Homo sapiens) (UniProt P36888); experiment: Inhibition of FLT3 (unknown origin) at 1 uM
[14] = biological target: Serine/threonine-protein kinase PAK 4 (Homo sapiens) (UniProt O96013); experiment: Inhibition of PAK4 (unknown origin) at 1 uM
[15] = biological target: Death-associated protein kinase 3 (Homo sapiens) (UniProt O43293); experiment: Inhibition of DAPK3 (unknown origin) at 1 uM
[16] = biological target: Serine/threonine-protein kinase PLK3 (Homo sapiens) (UniProt Q9H4B4); experiment: Inhibition of PLK3 (unknown origin) at 1 uM
[17] = biological target: Hepatocyte growth factor receptor (Homo sapiens) (UniProt P08581); experiment: Inhibition of cMET (unknown origin) at 1 uM
Hepatocyte growth factor receptor (Homo sapiens), sequence (P08581 whole entry): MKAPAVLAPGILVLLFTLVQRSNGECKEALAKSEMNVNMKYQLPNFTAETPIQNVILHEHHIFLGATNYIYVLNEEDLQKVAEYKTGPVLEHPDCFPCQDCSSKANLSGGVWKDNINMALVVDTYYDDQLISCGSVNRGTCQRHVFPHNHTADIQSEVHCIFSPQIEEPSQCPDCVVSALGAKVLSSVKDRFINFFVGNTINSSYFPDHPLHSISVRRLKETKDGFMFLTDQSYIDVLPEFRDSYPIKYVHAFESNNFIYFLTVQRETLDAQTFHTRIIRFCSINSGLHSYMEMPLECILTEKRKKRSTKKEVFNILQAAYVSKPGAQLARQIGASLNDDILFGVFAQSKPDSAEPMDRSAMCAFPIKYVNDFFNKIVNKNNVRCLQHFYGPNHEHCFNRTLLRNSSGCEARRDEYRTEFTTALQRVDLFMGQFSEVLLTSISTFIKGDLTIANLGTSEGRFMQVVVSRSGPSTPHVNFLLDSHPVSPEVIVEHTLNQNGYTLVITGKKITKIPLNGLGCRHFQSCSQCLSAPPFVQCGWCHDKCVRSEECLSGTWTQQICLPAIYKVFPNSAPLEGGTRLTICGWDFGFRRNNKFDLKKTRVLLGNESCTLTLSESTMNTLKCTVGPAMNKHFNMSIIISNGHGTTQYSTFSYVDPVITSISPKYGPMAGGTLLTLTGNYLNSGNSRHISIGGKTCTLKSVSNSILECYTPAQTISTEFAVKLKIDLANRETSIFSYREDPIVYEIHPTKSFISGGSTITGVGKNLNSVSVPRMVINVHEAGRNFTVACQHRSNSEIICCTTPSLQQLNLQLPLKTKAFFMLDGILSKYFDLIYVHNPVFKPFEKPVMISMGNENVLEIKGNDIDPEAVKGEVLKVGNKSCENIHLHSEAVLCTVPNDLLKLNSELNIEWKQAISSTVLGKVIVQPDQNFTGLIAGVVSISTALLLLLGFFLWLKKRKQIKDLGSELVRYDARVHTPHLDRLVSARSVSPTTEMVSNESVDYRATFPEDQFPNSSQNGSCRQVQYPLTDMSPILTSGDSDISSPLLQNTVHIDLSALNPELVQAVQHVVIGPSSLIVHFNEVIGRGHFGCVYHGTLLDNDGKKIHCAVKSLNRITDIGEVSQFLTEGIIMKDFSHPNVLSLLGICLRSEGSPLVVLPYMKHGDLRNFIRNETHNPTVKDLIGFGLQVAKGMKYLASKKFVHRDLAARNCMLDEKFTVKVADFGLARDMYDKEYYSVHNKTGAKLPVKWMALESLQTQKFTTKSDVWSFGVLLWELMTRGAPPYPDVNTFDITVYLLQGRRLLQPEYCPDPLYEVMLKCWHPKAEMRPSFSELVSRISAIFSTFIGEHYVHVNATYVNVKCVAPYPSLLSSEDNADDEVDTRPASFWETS

SMILES: Cn1c(=O)c(Oc2ccc(F)cc2F)cc2cnc(NC3CCN(S(N)(=O)=O)CC3)nc21
- inhibition [1]: 9%
- inhibition [2]: 22%
- inhibition [3]: 85%
- inhibition [4]: 17%
- inhibition [5]: 8%
- inhibition [6]: 1%
- inhibition [7]: 30%
- inhibition [8]: 71%
- inhibition [9]: 10%
- inhibition [10]: 17%
- inhibition [11]: 4%
- inhibition [12]: 7%
- inhibition [13]: 8%
- inhibition [14]: 32%
- inhibition [15]: 0%
- inhibition [16]: 4%
- inhibition [17]: 22%
